Read-outs that look alike come from different tables or passages of the source.
Key:
[1] = target: T1, Plasmodium falciparum calcium-dependent protein kinase 1 (CDPK1) (Plasmodium falciparum, UniProt P62344); assay: CDPK1 Kinase-Glo ATP-consumption screen and dose-response; format: biochemical; settings: hits below 1 uM; read-out: CDPK1 IC50
T1 construct: 6-Histidine (N); made in house
Outline: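 Single-point testing used 1 μM final compound, then dose-response, against CDPK4 and CDPK1 with Syntide-2 (40 μM) as substrate. After 90 min, reactions were halted by 5 mM EGTA, and kinase activity was inferred from depleted ATP via Kinase-Glo luminescence.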

[2] = target: T2, Plasmodium falciparum calcium-dependent protein kinase 4 (CDPK4) (Plasmodium falciparum, UniProt Q8IBS5); assay: CDPK4 Kinase-Glo ATP-consumption screen and dose-response; format: biochemical; settings: hits below 1 uM
T2 construct: 6-Histidine (N); made in house
T2 sequence (Q8IBS5 1-528): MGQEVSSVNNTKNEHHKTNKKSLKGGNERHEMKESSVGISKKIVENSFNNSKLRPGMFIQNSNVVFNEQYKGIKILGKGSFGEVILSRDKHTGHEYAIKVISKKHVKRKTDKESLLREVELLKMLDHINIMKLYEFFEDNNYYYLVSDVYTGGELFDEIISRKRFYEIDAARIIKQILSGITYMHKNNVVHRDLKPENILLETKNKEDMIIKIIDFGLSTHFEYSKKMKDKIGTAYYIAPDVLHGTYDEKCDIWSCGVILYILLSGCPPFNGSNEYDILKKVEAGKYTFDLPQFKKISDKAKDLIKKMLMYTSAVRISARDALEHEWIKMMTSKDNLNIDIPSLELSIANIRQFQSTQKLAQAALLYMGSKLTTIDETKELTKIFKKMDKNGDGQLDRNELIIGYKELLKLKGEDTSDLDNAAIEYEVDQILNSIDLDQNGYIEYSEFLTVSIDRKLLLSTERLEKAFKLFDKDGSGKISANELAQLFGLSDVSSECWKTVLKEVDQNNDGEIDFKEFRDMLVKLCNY
Procedure: Biochemical assays were performed in white 384-well plates (Nunc). Liquid transfers were done manually with 8-channel pipets. Compounds were initially tested in a single-point screen (final concentration 1 μM). […] The catalytic activity of each kinase was considered proportional to ATP consumed, as determined from measurements of residual [ATP] with the luciferase-based reagent Kinase-Glo (Promega) following incubation. Luminescence (proportional to residual [ATP]) was measured on the plate readers FLx800 (BioTek Instruments, Winooski, VT, USA) and MicroBeta^2 (PerkinElmer, Waltham, MA, USA). Incubation times were chosen to ensure near-complete ATP depletion in the absence of inhibition, thus maximizing the difference in signal between inhibited and uninhibited wells.
40 μM Syntide-2 was used as a substrate; BKI-1 [14] was used as a control inhibitor, while reaction mixtures lacking Syntide-2 were included as an additional negative control. Incubation time was 90 minutes. Reactions were terminated by adding excess EGTA (5 mM), which sequesters Ca^2+ and halts calcium-dependent kinase activity.

[3] = target: T3, Plasmodium falciparum protein kinase 6 (PK6) (Plasmodium falciparum, UniProt Q8IDW1); assay: biochemical; settings: hits below 1 uM; read-out: PK6 IC50
T3 construct: 6-Histidine (N); made in house
T3 sequence (Q8IDW1 1-305): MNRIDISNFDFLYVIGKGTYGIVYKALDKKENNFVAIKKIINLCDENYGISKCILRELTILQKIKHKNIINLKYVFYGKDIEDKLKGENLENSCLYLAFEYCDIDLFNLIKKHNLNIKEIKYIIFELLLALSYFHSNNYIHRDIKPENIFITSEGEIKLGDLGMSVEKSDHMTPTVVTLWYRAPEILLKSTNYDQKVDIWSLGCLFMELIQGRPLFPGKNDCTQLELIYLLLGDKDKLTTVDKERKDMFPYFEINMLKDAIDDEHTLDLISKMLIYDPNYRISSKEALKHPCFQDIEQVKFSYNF

PKG = PKG (Plasmodium falciparum, UniProt Q8I719); assay: PKG IC50 (supplementary data file); format: biochemical
Excerpt: Supplement pone.0149996.s003.xls, sheet "combined_1_sorted"

HepG2 cells = settings: cited from earlier work
P. falciparum 3D7 cells = settings: cited from earlier work
DD2 = system: DD2; design: method as in downloaded from ChEMBL; settings: ref downloaded from ChEMBL; cited from earlier work
3D7 PFLDH [4] = system: 3D7 PFLDH; design: method as in downloaded from ChEMBL; settings: ref downloaded from ChEMBL; cited from earlier work
P. falciparum DD2 = system: P. falciparum DD2; design: method as in ChEMBL; settings: ref ChEMBL; cited from earlier work
3D7 PFLDH [5] = system: 3D7 PFLDH; design: method as in ChEMBL; settings: ref ChEMBL; cited from earlier work
[6] = HEPG2, ref downloaded from ChEMBL
[7] = 3D7, ref downloaded from ChEMBL

T1 sequence (P62344 whole entry): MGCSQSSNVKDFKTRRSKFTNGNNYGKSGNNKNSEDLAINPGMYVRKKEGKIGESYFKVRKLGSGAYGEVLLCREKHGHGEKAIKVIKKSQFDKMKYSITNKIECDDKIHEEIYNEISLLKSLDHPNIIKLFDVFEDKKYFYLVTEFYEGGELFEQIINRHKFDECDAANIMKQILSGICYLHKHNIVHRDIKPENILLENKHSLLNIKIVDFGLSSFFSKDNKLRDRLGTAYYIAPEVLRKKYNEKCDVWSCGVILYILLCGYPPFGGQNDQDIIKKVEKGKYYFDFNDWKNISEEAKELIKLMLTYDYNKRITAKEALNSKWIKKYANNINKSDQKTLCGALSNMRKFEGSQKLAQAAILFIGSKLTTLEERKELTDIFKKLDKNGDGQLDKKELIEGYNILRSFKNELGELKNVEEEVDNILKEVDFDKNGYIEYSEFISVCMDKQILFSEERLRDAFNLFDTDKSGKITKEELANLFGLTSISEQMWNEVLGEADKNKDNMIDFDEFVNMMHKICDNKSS
PKG, sequence (Q8I719 whole entry): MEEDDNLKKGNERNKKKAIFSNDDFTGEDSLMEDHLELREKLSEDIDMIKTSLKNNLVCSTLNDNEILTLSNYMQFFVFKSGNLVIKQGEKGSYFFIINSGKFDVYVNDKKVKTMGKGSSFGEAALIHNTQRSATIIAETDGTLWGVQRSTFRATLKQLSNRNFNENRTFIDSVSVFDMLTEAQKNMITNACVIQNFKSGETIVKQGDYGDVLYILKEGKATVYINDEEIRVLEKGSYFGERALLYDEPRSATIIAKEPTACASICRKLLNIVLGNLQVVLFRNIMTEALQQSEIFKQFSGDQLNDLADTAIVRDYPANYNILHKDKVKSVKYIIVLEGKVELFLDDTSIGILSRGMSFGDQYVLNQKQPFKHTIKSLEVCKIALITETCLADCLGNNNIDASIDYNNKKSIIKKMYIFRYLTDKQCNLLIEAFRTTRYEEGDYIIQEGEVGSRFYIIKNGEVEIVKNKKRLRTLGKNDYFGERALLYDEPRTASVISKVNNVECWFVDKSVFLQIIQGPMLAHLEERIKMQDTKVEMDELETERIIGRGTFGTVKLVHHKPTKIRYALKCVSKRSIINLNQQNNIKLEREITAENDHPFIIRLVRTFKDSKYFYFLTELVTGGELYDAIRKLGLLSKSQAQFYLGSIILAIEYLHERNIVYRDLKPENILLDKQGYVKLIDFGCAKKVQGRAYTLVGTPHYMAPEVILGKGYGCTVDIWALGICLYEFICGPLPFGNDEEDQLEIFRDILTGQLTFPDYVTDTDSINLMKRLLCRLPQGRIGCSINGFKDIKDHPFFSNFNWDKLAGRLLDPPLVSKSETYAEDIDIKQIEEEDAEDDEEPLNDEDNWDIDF

SMILES | IC50 [1] | IC50 [2] | IC50 [3] | IC50 (PKG) | PCT_INHIB_HEPG2 (HepG2 cells; [6]) | PCT_IHB_3D7 (P. falciparum 3D7 cells; [7]) | pXC50_3D7 (P. falciparum 3D7 cells; [7]) | PCT_INHB_DD2 (DD2) | PCT_INHIB_3D7_PFLDH (3D7 PFLDH [4]) | PCT_INHIB_HEPG2 (HepG2 cells; HepG2 cells, ref ChEMBL) | PCT_IHB_3D7 (P. falciparum 3D7 cells; P. falciparum 3D7, ref ChEMBL) | pXC50_3D7 (P. falciparum 3D7 cells; P. falciparum 3D7, ref ChEMBL) | PCT_INHB_DD2 (P. falciparum DD2) | PCT_INHIB_3D7_PFLDH (3D7 PFLDH [5])
CS(=O)(=O)Cc1ccc(Nc2nccc(-c3c(-c4cccc(NC(=O)c5c(F)cccc5F)c4)nn4ccccc34)n2)cc1 [TCMDC-135669] | 20 nM | 52 nM | 276 nM | > 10 µM | 78 | 99 | 6.824 | 75 | 0 | – | – | – | – | –
C(=N\Nc1nccc2sc(-c3ccccc3)cc12)/c1cccnc1 [TCMDC-135190] | – | – | 278 nM | – | – | – | – | – | – | 0 | 97 | 6.086 | 10 | 8
O=C(Nc1cccc(-c2nn3ccccc3c2-c2ccnc(Nc3ccc(NCCCN4CCOCC4)c(F)c3)n2)c1)c1c(F)cccc1F [TCMDC-135921] | 38 nM | 315 nM | 580 nM | 5.46 µM | 86 | 100 | 6.586 | 97 | 0 | – | – | – | – | –
Br.CC(=O)Nc1nc(C)c(-c2csc(Nc3ccc(Cl)cc3)n2)s1 [TCMDC-123995] | – | – | 95 nM | – | – | – | – | – | – | 14 | 96 | 6.589 | 93 | 0
N#Cc1cnc(Nc2ccc(Oc3ccccc3)cc2)nc1Nc1cccc(S(N)(=O)=O)c1 [TCMDC-138613] | – | – | 201 nM | – | – | – | – | – | – | 74 | 96 | 6.256 | 86 | 3
O=C(Cc1ccc(Nc2nccc(Nc3cccc4[nH]ncc34)n2)cc1)Nc1ccc(C(F)(F)F)cc1 [TCMDC-136243] | – | – | 167 nM | – | – | – | – | – | – | 12 | 100 | 6.052 | 69 | 0
COc1cccc(-n2ncc3c(N/N=C/c4ccc(CN(C)CCN(C)C)cc4)ncnc32)c1 [TCMDC-138728] | – | – | 58 nM | – | – | – | – | – | – | 29 | 100 | 6.049 | 91 | 0
Cl.N=C(N)c1ccc(Nc2nc(Nc3ccc(-c4ccccc4)cc3)ncc2[N+](=O)[O-])cc1 [TCMDC-136145] | – | – | 164 nM | – | – | – | – | – | – | 11 | 99 | 6.095 | 35 | 0
N=C(N)c1ccc(Nc2nccc(Nc3nc(-c4ccccc4)cs3)n2)cc1.O=C(O)C(F)(F)F [TCMDC-136090] | – | – | 413 nM | – | – | – | – | – | – | 13 | 96 | 6.122 | 75 | 0
CCN(CC)CCNC(=O)c1ccc(Nc2ncc([N+](=O)[O-])c(Nc3ccccc3OC)n2)cc1.Cl [TCMDC-138727] | – | – | 110 nM | – | – | – | – | – | – | 59 | 97 | 6.841 | 58 | 0
CC(c1cccc(Nc2nccc(-c3c(-c4cccc(NC(=O)c5c(F)cccc5F)c4)nn4ccccc34)n2)c1)S(C)(=O)=O (stereo not drawn) [TCMDC-135670] | 21 nM | 90 nM | – | > 10 µM | 76 | 98 | 7.241 | 99 | 0 | – | – | – | – | –
Cl.NCc1ccc(Nc2nccc(Nc3ccc(-c4ccccc4)cc3)n2)cc1 [TCMDC-136004] | 375 nM | – | – | – | – | – | – | – | – | 47 | 100 | 6.05 | 98 | 0
Cn1c(=O)c(-c2c(Cl)cccc2Cl)cc2cnc(Nc3ccc(N4CCOCC4)cc3)nc21 [TCMDC-137156] | – | – | 145 nM | – | – | – | – | – | – | 64 | 98 | 6.794 | 97 | 4
NS(=O)(=O)CCc1cccc(Nc2nccc(-c3c(-c4cccc(NC(=O)c5c(F)cccc5F)c4)nn4ccccc34)n2)c1 [TCMDC-135791] | 20 nM | 29 nM | – | > 10 µM | 84 | 98 | 7.234 | 97 | 3 | – | – | – | – | –
CN1CCN(c2ccc(Nc3nccc(-c4c(-c5cccc(NC(=O)c6c(F)cccc6F)c5)nn5ccccc45)n3)cc2)CC1 [TCMDC-135818] | 35 nM | 75 nM | – | 0.115 µM | 86 | 98 | 6.95 | 98 | 0 | – | – | – | – | –
Cn1cnc2c(Nc3ccncc3)nc(-c3ccc4c(c3)OCO4)nc21.O=C(O)C(F)(F)F [TCMDC-141274] | – | – | 500 nM | – | – | – | – | – | – | 19 | 96 | 5.953 | 2 | 0
Cc1cc(F)ccc1-c1nc(Nc2ccncc2)c2ccn(C)c2n1 [TCMDC-141231] | 40 nM | – | – | – | – | – | – | – | – | 9 | 89 | 6.027 | 8 | 5
O=C(Nc1cccc(-c2nn3ccccc3c2-c2ccnc(Nc3ccc(-c4cc[nH]n4)cc3)n2)c1)c1c(F)cccc1F [TCMDC-135915] | 22 nM | 307 nM | – | > 10 µM | 68 | 98 | 6.7232 | 98 | 5 | – | – | – | – | –
O=C(Nc1c(F)cccc1F)c1cccc(-c2nn3ccccc3c2-c2ccnc(Nc3cccc(-c4cnco4)c3)n2)c1 [TCMDC-135743] | 40 nM | 134 nM | – | > 10 µM | 96 | 95 | 6.443 | 94 | 0 | – | – | – | – | –
CN(C(=O)c1cc2c(-c3cncnc3)cccc2[nH]1)c1ccccc1 [TCMDC-134637] | 271 nM | – | – | – | – | – | – | – | – | 1 | 92 | 6.202 | 99 | 0
NS(=O)(=O)c1cccc(Nc2nccc(-c3c(-c4cccc(NC(=O)c5c(F)cccc5F)c4)nn4ccccc34)n2)c1 [TCMDC-135780] | 20 nM | 51 nM | – | > 10 µM | 81 | 98 | 7.1329 | 97 | 2 | – | – | – | – | –
Cc1ccc(Nc2nccc(Nc3ccc4c(c3)nc(Nc3cc(C(C)(C)C)on3)n4C)n2)cc1S(C)(=O)=O [TCMDC-141889] | 242 nM | – | – | – | – | – | – | – | – | 30 | 100 | 6.222 | 99 | 0

Source: publication PMC4774911, “Biochemical Screening of Five Protein Kinases from Plasmodium falciparum against 14,000 Cell-Active Compounds” (PLoS ONE, 2016)
